# How the values were obtained:
# [1] = mouse, oral administration; Biol. Pharm. Bull, 42, 212-221, 2019; cited from earlier work
# [2] = tested on: MC38 mouse colon cancer cell line; test: Administration of EGC-M5 alone, subcutaneous MC38 tumor growth in mice (Comparative Example); format: in vivo; conditions: 16 days after transplantation; EGC-M5 5, 10, 20 and 30 mg/kg b.w. i.p. daily; vs control group, Tukey test
# Description: After preparatory rearing, MC38 mouse colon cancer cell line was transplanted subcutaneously into the 6-weeks-old male C57BL/6 mice at an amount of 5.0×10^5 cells/mouse. Each group had 8 mice. EGC-M5 was dissolved in the PBS buffer containing 10% DMSO. 200 μL of EGC-M5 solution at a dose of 5 mg, 10 mg, 20 mg, and 30 mg/kg b.w. was intraperitoneally administered to the mice daily starting on day 4 after transplantation. The tumor volume was measured with the vernier calipers, and the growth of the tumor was evaluated with time.
# Regarding to the mean (Mean) and the standard error (S.E.) of the tumor volume (natural logarithm) 16 days after transplantation, the significant difference between the control group (Control group) and the EGC-M5 administration group was assessed by Tukey's Multiple Comparison test.
compound,measurement,setting,value
"O=C1CC[C@H](Cc2cc(O)cc(O)c2)O1 [EGC-M5, (R)-5-(3,5-dihydroxyphenyl)-γ-valerolactone]",conjugates detected in serum,[1],"the sulfate conjugate and the glucuronic acid conjugate of the compound of 5-(3,5-dihydroxyphenyl)-γ-valerolactone are detected in the serum"
same,tumor volume (natural logarithm),[2],no significant differences were observed in the tumor volume values

# Source: patent US20250152552A1, “CANCER-CELL PROLIFERATION INHIBITOR AND CANCER-CELL-PROLIFERATION INHIBITION ENHANCER” (KYUSHU UNIVERSITY, NATIONAL UNIVERSITY CORPORATION, priority 2022, published 2025)
